Reference: patent publication US5304113A, “Method of eradicating infectious biological contaminants” (The MCW Research Foundation, Inc., priority 1990, dated 1994)
Entries after “also recorded” stand apart in the source; their conditions may differ.

Experiments:
[1] = illumination time reduction; settings: equimolar concentrations
Excerpt: An analog of MC 540 which we have labeled MC 540A (see structural formula below) reduces illumination times about 6-fold when used in equimolar concentrations. [drawing 3]
Merocyanine-mediated photolysis of tumor cells, viruses and protozoa appear to be primarily mediated by singlet oxygen. An additional 2-fold reduction in illumination time can therefore be achieved by performing the photosensitization step in the presence of deuterium oxide (D2 O).

[2] = test system: Friend erythroleukemia virus complex; test: Friend virus titer / inactivation by MC 540-mediated photosensitization; format: cell-based
Protocol: The ability of MC 540 to react with enveloped (i.e. lipid-containing) viruses was tested with the Friend erythroleukemia virus complex, the human T cell leukemia virus, HTLV-I and Herpes simplex 1. Friend virus was obtained from cell-free supernatants of cultured erythroleukemia cells or as a cell-free extract from infected animals. Simultaneous exposure to MC 540 (15 ug/ml) and light (40 J/cm^2) reduced the virus titer by ≥4 logs regardless of the origin of the virus preparation.

[3] = test system: virus-infected spleen cells, bone marrow cells, and cultured Friend erythroleukemia cells; test: inactivation of Friend virus-infected / transformed cells by photosensitization; format: cell-based
[4] = test system: herpes simplex virus type 1 (HSV-1); test: limiting dilution plaque forming assay on Vero cells (Herpes simplex 1 inactivation); format: cell-based, human
Excerpt: (§1) The amount of virus that could be sedimented by centrifugation was reduced 5-fold after treatment with MC 540 and light. The remaining 80% of the virus were probably lysed. The small fraction that was sedimented was visibly stained by MC 540. It is conceivable that the sedimented virus fraction, although not lysed, had sustained enough photodynamic damages to make it noninfectious. For example, when the virus is Herpes simplex 1 the order of magnitude reduction is as high as 45 times.
(§2) Experiments with human herpes simplex virus type 1 (HSV-1), and human T-cell leukemia virus type I (HTLV-I) produced similar results. […] A limiting dilution plaque forming assay on Vero cells indicated a ≥5 log reduction (limit of detection) of the virus titer after only 10 min. of illumination. The standard illumination protocol calls for 90 min. of illumination. It is thus conceivable that the titer can be reduced by ≥45 log. Infectivity assays for HTLV-I have, unfortunately, not yet been developed. We therefore used reverse transcriptase activity as an indicator of virus destruction. Photosensitized and untreated aliquots of the same virus suspension were pelleted on a sucrose cushion. The pellet of the treated aliquot was about 5 times smaller and visibly red. Its reverse transcriptase content was reduced by more than 80% (Table 1). The balance of the enzyme activity was recovered in the supernatant. More than 80% of the original virus mass was apparently damaged so extensively (virtually "dissolved") that it was no longer pelletable by a two hour spin at 100,000×g. If the photosensitization of enveloped viruses bears any resemblance to the photosensitization of cells, it is reasonable to speculate that the pelletable material was also photodamaged and perhaps no longer infective.

[5] = test system: human T-cell leukemia virus type I (HTLV-I) reverse transcriptase; test: HTLV-I inactivation: pelletable virus and reverse transcriptase activity; format: biochemical
Excerpt: as §1, §2

[6] = test system: HTLV-I infected cells; test: inactivation of HTLV-I infected cells; format: cell-based; settings: MC 540-mediated photosensitization
[7] = Acute systemic toxicity in mice (intravenous); format: in vivo, mouse (BAF1)
Protocol: The acute systemic toxicity of MC 540 was determined by injecting groups of 10 BAF1 mice intravenously with graded doses of MC 540. Survival data were plotted on a log probit scale and fitted with a least square regression line to determine LD10 and LD50 (Table 2).

[8] = test system: P. yoelii YM; test: survival of mice injected with treated P. yoelii-infected blood; format: in vivo
Protocol: (§3) Using the rodent malaria species, P. yoelii YM, and P. berghei berghei as model systems, the survival of mice i.v. injected with MC 540-treated and non-treated malarious blood was monitored in vivo. […] All mice receiving untreated malarious blood died rapidly. In a subsequent experiment, serial dilutions of treated (30 minutes of dye/light) or control malarious blood (30% parasitemia) were injected into recipient mice. One hundred percent of the mice receiving 10^4 treated cells survived compared to 0% of the corresponding control group. […] It is conceivable that MC 540 treatment of infected blood enhanced the immune response of the recipient mice.

[9] = test system: P. berghei berghei; test: survival of mice injected with treated P. berghei-infected blood; format: in vivo
Protocol: as §3
In two experiments, all mice receiving P. berghei-infected blood (30% parasitemia), treated for 15-45 minutes with light and MC 540, died as did their control counterparts. However, 10% of the group receiving infected blood treated for 60 minutes with light and dye survived for the duration of the experiment (90 days).

[10] = test system: normal pluripotent hematopoietic stem cells; test: sparing of normal pluripotent hematopoietic stem cells (rescue of lethally irradiated syngeneic hosts); format: in vivo, mouse; settings: photosensitization treatment
Protocol: (§4) When cultured F4-6 erythroleukemia cells, spleen or marrow cells from diseased animals, cell-free extracts of cultured cells, spleen cells, or marrow cells, or cell-free supernatants of F-6 cultures were injected into healthy B6D2F1 mice, the spleen weights increased from 70 mg to about 2 g within two weeks. The animals became polycythemic and, eventually, died. […] Normal pluripotent hematopoietic stem cells (as determined by the ability of photosensitized marrow cells to rescue lethally irradiated syngeneic hosts) were spared by the photosensitization treatment.

[11] = test system: mature blood cells; test: toxicity of photosensitization to mature blood cells; format: cell-based, mouse; settings: photosensitization treatment
Excerpt: 4) The same treatment protocol was much less toxic to mature blood cells and normal pluripotent hematopoietic stem cells in the mouse.
(§5) The simultaneous exposure to MC 540 and visible light also appears to kill protozoan-infected red blood cells very rapidly, but normal pluripotent hematopoietic stem cells and mature blood cells very slowly. This differential sensitivity to MC 540-mediated photolysis may be useful in purging blood and red blood cells of cell-free protozoa and protozoan-infected cells thus making the blood supply safer for use.

[12] = test system: protozoan-infected red blood cells; test: killing of protozoan-infected red blood cells; format: cell-based; settings: simultaneous exposure to MC 540 and visible light
Excerpt: as §5

[13] = test system: Friend virus; test: Friend virus disease in mice injected with photosensitized preparations; format: in vivo, B6D2F1 mice
Protocol: as §4

[14] = comparison dye; cited from earlier work
[15] = MC 540-mediated photosensitization
[16] = preparations photosensitized and exposed to light prior to injection

SMILES: CCCCN1C(=O)C(=CC=CC=C2Oc3c(ccc4ccccc34)N2CCCS(=O)(=O)O)C(=O)N(CCCC)C1=S [MC 540A]
- reduction of illumination time versus MC 540 [1]: about 6 fold

SMILES: CCCCN1C(=O)C(=CC=CC=C2Oc3ccccc3N2CCCS(=O)(=O)O)C(=O)N(CCCC)C1=S [MC 540]
- inactivation of Friend virus suspensions (in words) [2, 15]: rapidly inactivated
- log reduction at 15 µg/mL ([2]; light or radiation study, read-out: virus titer reduction (Friend virus)): ≥ 4
- inactivation of Friend virus-transformed / infected cells (in words) [3, 15]: rapidly inactivated
- rate of inactivation of virus-infected cells versus cell-free virus ([3]; simultaneous MC 540 (15 ug/ml) and light (40 J/cm^2)): inactivated at about the same rate as cell-free virus preparations
- virus titer reduction (HSV-1) ([4]; 10 min. of illumination, limit of detection): ≥ 5 log
- virus titer reduction (HSV-1), conceivable for standard protocol ([4]; 90 min. of illumination, extrapolated): ≥ 45 log
- inactivation of Herpes simplex (in words) [4, 15]: rapidly inactivated; also recorded: extremely susceptible
- HTLV-I, Reverse Transcriptase activity ([5]; MC 540, light 90 min): 37,848 cpm
- HTLV-I, Reverse Transcriptase activity ([5]; MC 540, no light): 208,548 cpm
- inactivation of HTLV-I (in words) [5, 15]: rapidly inactivated; also recorded: susceptible to MC 540-mediated photosensitization
- reduction of amount of virus sedimented by centrifugation (HTLV-I) ([5]; MC 540 and light): 5 fold
- virus probably lysed (HTLV-I) ([5]; MC 540 and light): 80%
- reduction of reverse transcriptase content of pellet (HTLV-I) ([5]; photosensitized vs untreated aliquot): more than 80%
- pellet size reduction of treated aliquot (HTLV-I) ([5]; photosensitized vs untreated aliquot, sucrose cushion): about 5 times smaller
- original virus mass no longer pelletable (HTLV-I) ([5]; two hour spin at 100,000×g): more than 80%
- inactivation of HTLV-I infected cells (in words) [6]: rapidly inactivated
- LD50 ([7]; in vivo, mouse, intravenous, log probit fit): 84 mg/kg
- LD10 (mouse) ([7]; intravenous, log probit fit): 55 mg/kg
- acute systemic toxicity (in words) ([7]; mouse, in vivo): very low
- acute toxicity compared with fluorescent dyes used for angiography of the retina ([7]; mouse, in vivo, iv): not more toxic than the fluorescent dyes that are commonly used for the angiography of the retina
- selectivity ratio ([7]; mouse, in vivo, iv, read-out: LD10 relative to amount injected with mouse bone marrow graft): > 100000
- probable cause of death after high doses (necropsy) ([7]; mouse, intravenous, high doses): formation of large emboli of precipitated dye in major blood vessel
- amount injected with photosensitized marrow graft ([7]; mouse, for comparison with LD10): 0.0004 mg/kg
- survival of mice receiving 10^4 treated cells ([8]; 30 minutes dye/light, 30% parasitemia, control 0%): One hundred
- survival of recipient population (P. yoelii) ([8]; 60 minutes dye/light, 40%-70% parasitemia): 70%-100
- protection of recipient mice (P. yoelii) ([8]; 90 minutes dye and light, 40%-70% parasitemia): total protection
- protection despite exceedingly high parasitemias (P. yoelii) ([8]; all stages of development): protection by MC 540 treatment was still obtained
- protection of recipient mice (P. yoelii), shorter illumination ([8]; shorter than 60 minutes illumination): partial protection
- course of disease in surviving mice ([8]; some of the surviving mice, both treatments): initially showed severe symptoms of malaria (e.g. splenomegaly, anemia) but later recovered
- outcome of mice receiving treated P. berghei-infected blood ([9]; 15-45 minutes light and MC 540, 30% parasitemia, two experiments): died
- survival of mice receiving treated P. berghei-infected blood ([9]; 60 minutes light and dye, 90 days): 10%
- effect on normal pluripotent hematopoietic stem cells (in words) [10]: very slowly
- effect on mature blood cells (in words) [11]: very slowly
- killing of protozoan-infected red blood cells (in words) [12]: very rapidly
- inactivation of free and intracellular Friend virus and Friend virus-infected cells ([13]; MC 540-mediated photolysis): inactivates free Friend virus, intracellular Friend virus, and Friend virus-infected cells
- effect of virus preparations exposed to dye or light alone ([13]; dye alone or light alone): caused splenomegaly, polycythemia,and death
- hematocrits [13, 16]: remained normal
- spleen weights [13, 16]: remained normal
- survival [13, 16]: the animals survived

SMILES: O=C1OC2(c3ccc(O)cc3Oc3cc(O)ccc32)c2ccccc21 [fluorescein]
- LD50 (mouse), for comparison [14]: 300 mg/kg
